Assays:
[1] = molecular target: T1, CDK2 (Homo sapiens, UniProt P24941); assay: DiscoverX KINOMEscan competition binding assay; conditions: compound 10 µM; lower values = higher affinity; below 35% = significant binding
T1 construct: purchased DiscoverX (KINOMEscan service); host or cells: E. coli BL21-derived host (T7 phage) or HEK-293
Experimental: (§1) Ligand binding experiments for the molecules selected from Profiles 1 and 2 towards nine kinases (EGFR, ErbB2, LCK, CDK2, BRAF, MET, p38α, PI3K and VEGFR2) and for molecules selected from Profiles 3 and 4 towards four kinases (EGFR, ErbB2, BRAF and VEGFR2) were carried out by DiscoverX using the supplied protocol as described in the Supplementary Materials. Briefly, ligand affinity was measured by competition with a resin-bound standard ligand and washed-off kinase concentration was determined via qPCR.
(§2) Summarizing, binding of a compound to a kinase was tested in comparison to a control compound (see Table S2). […]
(§3) 1.1. DiscoverX kinase assay
(§4) For most assays, kinase-tagged T7 phage strains were grown in parallel in 24-well blocks in an E.coli host derived from the BL21 strain. E.coli were grown to log-phase and infected with T7 phage from a frozen stock (multiplicity of infection = 0.4) and incubated with shaking at 32°C until lysis (90-150 minutes). The lysates were centrifuged (6,000 x g) and ﬁltered (0.2µm) to remove cell debris.
(§5) The remaining kinases were produced in HEK-293 cells and subsequently tagged with DNA for qPCR detection. Streptavidin-coated magnetic beads were treated with biotinylated small molecule ligands for 30 minutes at room temperature to generate afﬁnity resins for the kinases. The liganded beads were blocked with excess biotin and washed with blocking buffer (SeaBlock [Pierce], 1% BSA, 0.05% Tween 20, 1 mM DTT) to remove unbound ligands and to reduce non-speciﬁc phage binding. Binding reactions were assembled by combining kinases, liganded afﬁnity beads, and test compounds in 1x binding buffer (20% SeaBlock, 0.17x PBS, 0.05% Tween 20, 6 mM DTT). Test compounds were prepared as 40x stocks in 100% DMSO and directly diluted into the assay. All reactions were performed in polypropylene 384-well plates in a ﬁnal volume of 0.02 ml. The assay plates were incubated at room temperature with shaking for 1 hour and the afﬁnity beads were washed with wash buffer (1x PBS, 0.05% Tween 20). The beads were then re-suspended in elution buffer (1x PBS, 0.05% Tween 20, 0.5 µM non-biotinylated afﬁnity ligand) and incubated at room temperature with shaking for 30 minutes. The kinase concentration in the eluates was measured by qPCR. […]
(§6) Table S2. Experimental % control values from the DiscoverX kinase assay. Compounds were tested against the nine kinases EGFR, ErbB2, LCK, CDK2, BRAF, MET, p38α, PI3K and VEGFR2, unless otherwise stated. Binding of kinase and compound were tested at a compound concentration of 10 µM and in comparison to a control compound. Lower values indicate a higher afﬁnity of the compound to the protein and values below 35% indicate signiﬁcant binding according to information of the CRO. […]
(§7) a Compounds were only tested against four kinases (EGFR, ErbB2, BRAF and VEGFR2). b Compound was selected independently from two docking proﬁles and tested separately during

[2] = molecular target: T2, LCK (Homo sapiens, UniProt P06239); assay: DiscoverX KINOMEscan competition binding assay; conditions: compound 10 µM; lower values = higher affinity; below 35% = significant binding
T2 construct: purchased DiscoverX (KINOMEscan service); host or cells: E. coli BL21-derived host (T7 phage) or HEK-293
T2 sequence (P06239 whole entry): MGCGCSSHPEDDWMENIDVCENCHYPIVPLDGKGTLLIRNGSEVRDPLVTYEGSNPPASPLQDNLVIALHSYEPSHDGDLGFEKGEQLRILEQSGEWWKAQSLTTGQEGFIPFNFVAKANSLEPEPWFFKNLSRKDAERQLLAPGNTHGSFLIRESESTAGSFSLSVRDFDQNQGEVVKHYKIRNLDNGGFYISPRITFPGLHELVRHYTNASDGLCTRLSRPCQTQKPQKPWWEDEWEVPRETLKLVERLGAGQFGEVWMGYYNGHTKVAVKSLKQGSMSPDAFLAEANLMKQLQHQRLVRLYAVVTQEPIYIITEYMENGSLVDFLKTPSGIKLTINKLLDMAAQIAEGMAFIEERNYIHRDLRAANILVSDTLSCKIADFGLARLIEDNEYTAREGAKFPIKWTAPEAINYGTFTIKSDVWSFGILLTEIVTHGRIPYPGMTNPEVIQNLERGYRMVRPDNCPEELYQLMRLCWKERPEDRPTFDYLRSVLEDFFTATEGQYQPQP
Experimental: as §1, §2, §3, §4, §5, §6, §7

[3] = molecular target: T3, VEGFR2 (Homo sapiens, UniProt P35968); assay: DiscoverX KINOMEscan competition binding assay; conditions: compound 10 µM; lower values = higher affinity; below 35% = significant binding
T3 construct: purchased DiscoverX (KINOMEscan service); host or cells: E. coli BL21-derived host (T7 phage) or HEK-293
Experimental: as §1, §2, §3, §4, §5, §6, §7

[4] = molecular target: T4, EGFR (Homo sapiens, UniProt P00533); assay: DiscoverX KINOMEscan competition binding assay; conditions: compound 10 µM; lower values = higher affinity; below 35% = significant binding
T4 construct: purchased DiscoverX (KINOMEscan service); host or cells: E. coli BL21-derived host (T7 phage) or HEK-293
T4 sequence (P00533 25-1210): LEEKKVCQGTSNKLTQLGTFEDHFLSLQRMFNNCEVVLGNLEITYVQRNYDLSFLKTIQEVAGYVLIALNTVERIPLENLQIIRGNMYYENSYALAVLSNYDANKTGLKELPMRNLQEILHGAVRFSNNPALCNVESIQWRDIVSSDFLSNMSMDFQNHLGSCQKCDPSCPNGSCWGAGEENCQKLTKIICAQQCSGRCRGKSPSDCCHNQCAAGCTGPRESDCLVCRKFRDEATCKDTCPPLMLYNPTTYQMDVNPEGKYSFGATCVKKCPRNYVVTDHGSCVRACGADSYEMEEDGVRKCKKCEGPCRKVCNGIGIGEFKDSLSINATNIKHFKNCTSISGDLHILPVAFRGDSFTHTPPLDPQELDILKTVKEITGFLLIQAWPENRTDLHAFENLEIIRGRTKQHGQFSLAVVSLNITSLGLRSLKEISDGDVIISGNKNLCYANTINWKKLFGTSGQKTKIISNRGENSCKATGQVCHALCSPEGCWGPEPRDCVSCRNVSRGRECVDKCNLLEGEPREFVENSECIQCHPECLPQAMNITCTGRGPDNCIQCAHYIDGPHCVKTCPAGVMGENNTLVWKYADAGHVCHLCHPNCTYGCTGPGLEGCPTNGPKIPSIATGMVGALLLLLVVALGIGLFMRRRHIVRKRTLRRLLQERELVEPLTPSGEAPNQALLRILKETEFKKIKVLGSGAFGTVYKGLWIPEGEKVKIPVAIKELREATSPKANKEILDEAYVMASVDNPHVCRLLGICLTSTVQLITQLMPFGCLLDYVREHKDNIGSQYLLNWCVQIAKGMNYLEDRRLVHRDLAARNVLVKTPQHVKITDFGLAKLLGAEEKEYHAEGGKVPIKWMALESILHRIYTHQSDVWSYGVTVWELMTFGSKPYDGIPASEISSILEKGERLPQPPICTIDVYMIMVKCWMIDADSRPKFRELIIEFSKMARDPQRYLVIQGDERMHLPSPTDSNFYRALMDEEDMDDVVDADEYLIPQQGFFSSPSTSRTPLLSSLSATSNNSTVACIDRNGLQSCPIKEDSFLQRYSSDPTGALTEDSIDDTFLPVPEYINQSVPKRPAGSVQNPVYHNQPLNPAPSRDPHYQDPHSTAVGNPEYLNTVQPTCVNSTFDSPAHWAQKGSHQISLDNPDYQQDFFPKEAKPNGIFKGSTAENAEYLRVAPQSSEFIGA
Experimental: as §1, §2, §3, §4, §5, §6, §7

[5] = molecular target: T5, p38α (Homo sapiens, UniProt Q16539); assay: DiscoverX KINOMEscan competition binding assay; conditions: compound 10 µM; lower values = higher affinity; below 35% = significant binding
T5 construct: purchased DiscoverX (KINOMEscan service); host or cells: E. coli BL21-derived host (T7 phage) or HEK-293
T5 sequence (Q16539 whole entry): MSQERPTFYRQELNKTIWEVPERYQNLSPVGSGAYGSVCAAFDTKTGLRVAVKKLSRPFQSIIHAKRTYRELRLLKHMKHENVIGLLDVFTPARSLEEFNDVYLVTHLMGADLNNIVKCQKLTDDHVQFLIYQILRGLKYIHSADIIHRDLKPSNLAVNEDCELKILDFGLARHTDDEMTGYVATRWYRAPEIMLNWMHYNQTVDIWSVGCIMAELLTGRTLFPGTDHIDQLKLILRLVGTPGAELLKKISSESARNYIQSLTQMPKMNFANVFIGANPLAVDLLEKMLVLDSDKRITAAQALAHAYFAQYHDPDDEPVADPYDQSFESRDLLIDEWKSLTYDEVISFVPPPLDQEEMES
Experimental: as §1, §2, §3, §4, §5, §6, §7

[6] = molecular target: T6, MET (Homo sapiens, UniProt P08581); assay: DiscoverX KINOMEscan competition binding assay; conditions: compound 10 µM; lower values = higher affinity; below 35% = significant binding
T6 construct: purchased DiscoverX (KINOMEscan service); host or cells: E. coli BL21-derived host (T7 phage) or HEK-293
Experimental: as §1, §2, §3, §4, §5, §6, §7

[7] = molecular target: T7, BRAF (Homo sapiens, UniProt P15056); assay: DiscoverX KINOMEscan competition binding assay; conditions: compound 10 µM; lower values = higher affinity; below 35% = significant binding
T7 construct: purchased DiscoverX (KINOMEscan service); host or cells: E. coli BL21-derived host (T7 phage) or HEK-293
T7 sequence (P15056 whole entry): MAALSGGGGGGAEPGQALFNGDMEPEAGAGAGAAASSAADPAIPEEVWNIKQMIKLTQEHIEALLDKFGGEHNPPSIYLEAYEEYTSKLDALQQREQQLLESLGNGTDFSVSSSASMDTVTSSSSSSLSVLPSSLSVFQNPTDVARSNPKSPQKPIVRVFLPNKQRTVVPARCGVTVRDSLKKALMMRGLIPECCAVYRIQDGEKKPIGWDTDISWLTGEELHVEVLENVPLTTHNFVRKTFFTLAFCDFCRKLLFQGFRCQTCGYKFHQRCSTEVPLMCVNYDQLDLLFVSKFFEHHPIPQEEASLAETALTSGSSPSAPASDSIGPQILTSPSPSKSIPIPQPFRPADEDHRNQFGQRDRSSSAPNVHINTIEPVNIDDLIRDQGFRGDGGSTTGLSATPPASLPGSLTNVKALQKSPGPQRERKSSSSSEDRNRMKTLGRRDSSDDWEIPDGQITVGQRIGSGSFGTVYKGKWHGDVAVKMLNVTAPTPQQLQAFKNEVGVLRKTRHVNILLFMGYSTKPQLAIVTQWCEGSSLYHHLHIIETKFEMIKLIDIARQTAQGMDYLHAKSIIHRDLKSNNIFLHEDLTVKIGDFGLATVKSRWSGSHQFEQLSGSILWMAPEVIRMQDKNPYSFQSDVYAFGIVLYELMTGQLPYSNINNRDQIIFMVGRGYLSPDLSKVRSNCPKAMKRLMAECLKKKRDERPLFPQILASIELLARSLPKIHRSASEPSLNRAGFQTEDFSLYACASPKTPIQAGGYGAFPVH
Experimental: as §1, §2, §3, §4, §5, §6, §7

[8] = molecular target: T8, ErbB2 (Homo sapiens, UniProt P04626); assay: DiscoverX KINOMEscan competition binding assay; conditions: compound 10 µM; lower values = higher affinity; below 35% = significant binding
T8 construct: purchased DiscoverX (KINOMEscan service); host or cells: E. coli BL21-derived host (T7 phage) or HEK-293
Experimental: as §1, §2, §3, §4, §5, §6, §7

[9] = molecular target: T9, PI3K (Homo sapiens, UniProt P42336); assay: DiscoverX KINOMEscan competition binding assay; set-up: purchased DiscoverX (KINOMEscan service); host or cells: E. coli BL21-derived host (T7 phage) or HEK-293; conditions: compound 10 µM; lower values = higher affinity; below 35% = significant binding
Experimental: as §1, §2, §3, §4, §5, §6, §7
Target sequence in this assay (P42336 whole entry): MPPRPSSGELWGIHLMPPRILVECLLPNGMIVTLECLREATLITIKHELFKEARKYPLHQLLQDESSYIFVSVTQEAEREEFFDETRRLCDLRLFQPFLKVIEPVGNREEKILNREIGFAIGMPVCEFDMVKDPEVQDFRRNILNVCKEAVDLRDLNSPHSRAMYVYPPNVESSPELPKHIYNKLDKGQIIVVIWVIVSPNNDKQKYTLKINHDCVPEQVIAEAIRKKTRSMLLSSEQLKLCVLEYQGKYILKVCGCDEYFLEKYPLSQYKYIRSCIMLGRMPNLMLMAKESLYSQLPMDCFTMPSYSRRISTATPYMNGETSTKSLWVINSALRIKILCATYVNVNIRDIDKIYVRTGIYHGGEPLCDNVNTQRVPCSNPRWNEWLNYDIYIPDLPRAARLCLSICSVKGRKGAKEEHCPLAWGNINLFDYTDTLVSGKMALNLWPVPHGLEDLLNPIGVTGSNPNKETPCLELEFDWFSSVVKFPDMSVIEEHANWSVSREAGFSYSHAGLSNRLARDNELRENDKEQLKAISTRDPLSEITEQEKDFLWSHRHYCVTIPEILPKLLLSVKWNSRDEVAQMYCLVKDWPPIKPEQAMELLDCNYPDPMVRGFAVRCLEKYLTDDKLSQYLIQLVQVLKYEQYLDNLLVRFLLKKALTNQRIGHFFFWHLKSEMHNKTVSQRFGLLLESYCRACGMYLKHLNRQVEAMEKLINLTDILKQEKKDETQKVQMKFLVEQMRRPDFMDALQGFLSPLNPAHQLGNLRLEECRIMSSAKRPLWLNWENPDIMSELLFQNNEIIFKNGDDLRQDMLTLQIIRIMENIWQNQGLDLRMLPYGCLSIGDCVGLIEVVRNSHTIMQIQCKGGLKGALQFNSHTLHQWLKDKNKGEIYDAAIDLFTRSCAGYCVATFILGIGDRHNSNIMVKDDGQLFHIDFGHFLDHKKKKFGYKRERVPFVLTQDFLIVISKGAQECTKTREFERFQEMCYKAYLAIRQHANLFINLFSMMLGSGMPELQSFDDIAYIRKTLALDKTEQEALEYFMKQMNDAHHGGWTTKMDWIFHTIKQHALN

[10] = molecular target: T4, EGFR; assay: Eurofins in vitro kinase inhibition assay; type: biochemical; conditions: compound 20 µM; mean (SD); above 50% significant, 25-50% weak
Experimental: (§8) Kinase inhibition assays for EGFR, ErbB2, PI3K and BRAF were carried out by Eurofins Cerep following the protocols of Weber et al. (EGFR), Quian et al. (ErbB2), Sinnamon et al. (PI3K) and Kupcho et al. (BRAF). Briefly, except for PI3K, compounds were incubated with the respective kinase, ATP, and a substrate analog, and the effect of each compound on phosphorylation was measured. In the case of PI3K, the displacement of biotinylated PIP3 from a PIP3-binding complex by unlabelled PIP3 (produced from PIP2 by PI3K) was measured by Homogeneous Time Resolved Fluorescence (HTRF).
(§9) Finally, inhibition of the respective kinases is calculated as the percentage inhibition of control activity.
(§10) Table S3. Experimental results from the Euroﬁns assay. Inhibition of four kinases (EGFR, PI3K, ErbB2, BRAF) was measured at compound concentrations of 20 µM. Inhibition was calculated as % inhibition of control activity. According to CRO, values above 50% inhibition represent signiﬁcant inhibition, values above 25% weak inhibition effect and values below 25% as well as negative values are usually not signiﬁcant. Results are reported in mean (SD) format. […]
(§11) a Compound interfered with assay readout.

[11] = molecular target: T7, BRAF; assay: Eurofins in vitro kinase inhibition assay; type: biochemical; conditions: compound 20 µM; mean (SD); above 50% significant, 25-50% weak
Experimental: as §8, §9, §10, §11

[12] = molecular target: T8, ErbB2; assay: Eurofins in vitro kinase inhibition assay; type: biochemical; conditions: compound 20 µM; mean (SD); above 50% significant, 25-50% weak
Experimental: as §8, §9, §10, §11

[13] = molecular target: T9, PI3K; assay: Eurofins in vitro kinase inhibition assay (HTRF, PIP3 displacement); type: biochemical; set-up: purchased Eurofins Cerep (contract assay); conditions: compound 20 µM; mean (SD); above 50% significant, 25-50% weak
Experimental: as §8, §9, §10, §11
Target sequence in this assay (P42336 whole entry): as above
Target sequence in this assay (P27986 whole entry partner): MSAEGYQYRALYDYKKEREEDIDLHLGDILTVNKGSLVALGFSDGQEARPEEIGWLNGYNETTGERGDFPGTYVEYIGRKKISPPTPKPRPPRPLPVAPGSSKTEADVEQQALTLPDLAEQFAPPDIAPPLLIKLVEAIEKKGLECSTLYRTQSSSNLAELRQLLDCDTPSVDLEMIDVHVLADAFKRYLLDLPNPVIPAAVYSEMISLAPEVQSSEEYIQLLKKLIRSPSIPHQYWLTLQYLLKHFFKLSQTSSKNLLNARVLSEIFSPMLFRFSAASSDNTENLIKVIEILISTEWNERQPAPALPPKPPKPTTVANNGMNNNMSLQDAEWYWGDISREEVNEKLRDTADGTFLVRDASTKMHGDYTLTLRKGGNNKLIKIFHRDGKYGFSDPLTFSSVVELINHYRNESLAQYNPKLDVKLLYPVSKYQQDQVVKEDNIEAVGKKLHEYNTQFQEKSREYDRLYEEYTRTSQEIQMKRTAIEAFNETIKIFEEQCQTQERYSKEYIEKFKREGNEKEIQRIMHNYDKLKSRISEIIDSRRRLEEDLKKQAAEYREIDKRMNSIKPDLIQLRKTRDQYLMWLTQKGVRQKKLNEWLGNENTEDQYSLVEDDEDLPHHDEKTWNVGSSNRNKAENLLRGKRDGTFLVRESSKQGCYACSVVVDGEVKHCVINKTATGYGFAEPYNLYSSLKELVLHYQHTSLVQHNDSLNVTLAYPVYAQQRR

% control, CDK2 (DiscoverX) [1] [% control]	% control, LCK (DiscoverX) [2] [% control]	% control, VEGFR2 (DiscoverX) [3] [% control]	% control, EGFR (DiscoverX) [4] [% control]	% control, p38α (DiscoverX) [5] [% control]	% control, MET (DiscoverX) [6] [% control]	% control, BRAF (DiscoverX) [7] [% control]	% control, ErbB2 (DiscoverX) [8] [% control]	% control, PI3K (DiscoverX) [9] [% control]	% inhibition of control activity, EGFR (Eurofins) [10]	% inhibition of control activity, BRAF (Eurofins) [11]	% inhibition of control activity, ErbB2 (Eurofins) [12]	% inhibition of control activity, PI3K (Eurofins) [13]	Compound
100	100	100	87	97	90	89	96	100	3.2 (10.7) % inhibition	-33.6 (18.1) % inhibition	-0.6 (1.0) % inhibition	17.4 (0.4) % inhibition	O=C(Oc1ccc2c3c(c(=O)oc2c1)CCC3)c1cccc(Cl)c1 [DS76514]
100	100	100	100	100	99	88	99	99	18.1 (7.9) % inhibition	-8.3 (20.8) % inhibition	0.1 (2.1) % inhibition	-0.2 (0.4) % inhibition	COCCCNC(=O)c1nc2c3c4c(sc3ncn2n1)COC(C)(C)C4 [DS11689]
100	100	100	93	91	87	100	100	100	17.3 (0.1) % inhibition	-19.6 (11.8) % inhibition	-3.3 (0.5) % inhibition	1.4 (0.1) % inhibition	CC(C)n1ccc(=O)nc1SC1CCN(c2ccccc2F)C1=O (centres unmarked) [DS99367]
99	96	100	100	100	100	97	100	100	3.4 (1.8) % inhibition	-14.7 (7.4) % inhibition	-7.4 (1.0) % inhibition	-2.8 (0.6) % inhibition	C[C@H](COCC(F)(F)F)NC(=O)Cc1n[nH]c(=O)c2ccccc12 [DS04644]
99	100	100	90	100	100	92	100	100	16.1 (7.5) % inhibition	-11.3 (4.2) % inhibition	-1.6 (1.9) % inhibition	-2 (0.8) % inhibition	CC1(C)C2CC=C(COC(=O)c3cnn4cccnc34)C1C2 (centres unmarked) [DS34376]
100	100	100	89	100	100	86	100	97	18 (3.2) % inhibition	-0.3 (1.6) % inhibition	-2.8 (0.7) % inhibition	2.1 (0.4) % inhibition	O=C(O)c1cncnc1NCc1nc(-c2cnccn2)n[nH]1 [DS74417]
100	87	100	97	83	100	100	95	100	11.3 (4.5) % inhibition	-22.8 (15.9) % inhibition	-4.6 (2.9) % inhibition	20 (5.2) % inhibition	CN(C)S(=O)(=O)c1cccc(C2=N/C(=C\c3cccc(F)c3)C(=O)O2)c1 [DS74631]
100	100	99	96	100	78	100	87	100	19.8 (5.0) % inhibition	-12.4 (1.8) % inhibition	9.8 (21.9) % inhibition	-1.1 (2.1) % inhibition	Cc1cc(=O)n2nc(N(C)CC(=O)NCc3cccs3)sc2n1 [DS72975]
